The experiment has as its system TrxR1 protein in U87 cells. Nature of the experiment: TrxR1 protein expression by flow cytometry, U87. The settings on record: U87, 4 µM, 48 h. Type of experiment: cell-based, human. The protocol:
Flow cytometry was used to assess TrxR1 and ASK1 protein expression in the U87 and U87-TxR cell lines. Cells were seeded and allowed to attach overnight before exposure to compounds 2 and 5 at final concentrations of 2 μM and 4 μM. After 48 h treatment, cells were collected by trypsinization, rinsed with PBS, and subsequently fixed in 4% PFA for 10 min at room temperature. For permeabilization, ice-cold absolute methanol was added, and the samples were maintained at −20 °C overnight. Following this step, cells were washed in PBS and incubated for 1 h in 0.5% BSA/PBS to block nonspecific binding. Pelleted cells were then resuspended in primary antibodies diluted in 0.5% BSA/PBS [(ASK1, 1:200 (ab45178, Abcam, Cambridge, UK); TrxR1, 1:500 (ab124954, Abcam, Cambridge, UK)] and incubated overnight at +4 °C. Cells were then washed in PBS and incubated for 1 h at room temperature in the dark with fluorescently labeled anti-rabbit IgG secondary antibody (Alexa Fluor 488, ab150097, Abcam, Cambridge, UK), diluted 1:1000 in 0.5% BSA/PBS. Following incubation, samples were washed, resuspended in cold PBS, and analyzed by flow cytometry. A minimum of 10,000 events per sample were acquired, and fluorescence was detected in a green fluorescence channel (525 nm). Data acquisition and processing were performed using CytExpert software (version 2.4.0.28; Beckman Coulter, Indianapolis, IN, USA).

Each structure is given as a SMILES string.

Turning to `CC1(C)CCC[C@]2(C)[C@@H](CC[C@@](C)(O)/C=C/c3ccc(CNCCCCCCCCNCC45CC6CC(CC(C6)C4)C5)s3)[C@](C)(O)CC[C@@H]12` [Compound 2], the TrxR1 levels entry was “slight increase”.

Values taken from article PMC12735718, “Novel Adamantane–Sclareol Hybrids Exploit ROS Vulnerability to Overcome Multidrug-Resistance in Glioblastoma Cells” (Molecules, 2025).
